Data as given in the CheMixHub viscosity set.
± gives the uncertainty stated by the source.

Experiment: xn = mol fraction of the nth substance listed

[Ca+2].[Cl-].[Cl-] + O
Details	viscosity [mPa·s]
293.15 K, 101 kPa, x1 = 0.059	2.97 ± 0.08
298.15 K, 101 kPa, x1 = 0.000396	0.8977 ± 0.019
298.15 K, 101 kPa, x1 = 0.00043	0.8982 ± 0.019
298.15 K, 101 kPa, x1 = 0.00081	0.9042 ± 0.019
298.15 K, 101 kPa, x1 = 0.000844	0.9046 ± 0.019
298.15 K, 101 kPa, x1 = 0.00106	0.9082 ± 0.019
298.15 K, 101 kPa, x1 = 0.00107	0.9081 ± 0.019
298.15 K, 101 kPa, x1 = 0.00123	0.9106 ± 0.019
298.15 K, 101 kPa, x1 = 0.0013	0.9117 ± 0.019
298.15 K, 101 kPa, x1 = 0.00147	0.9145 ± 0.019
298.15 K, 101 kPa, x1 = 0.00151	0.9149 ± 0.019
298.15 K, 101 kPa, x1 = 0.00175	0.9186 ± 0.019
298.15 K, 101 kPa, x1 = 0.002367	0.9277 ± 0.019
298.15 K, 101 kPa, x1 = 0.002527	0.9302 ± 0.019
298.15 K, 101 kPa, x1 = 0.002586	0.9311 ± 0.019
298.15 K, 101 kPa, x1 = 0.003329	0.9425 ± 0.02
298.15 K, 101 kPa, x1 = 0.003395	0.9435 ± 0.02
298.15 K, 101 kPa, x1 = 0.003497	0.945 ± 0.02
298.15 K, 101 kPa, x1 = 0.003672	0.9476 ± 0.02
298.15 K, 101 kPa, x1 = 0.004546	0.9609 ± 0.02
298.15 K, 101 kPa, x1 = 0.004721	0.9637 ± 0.02
298.15 K, 101 kPa, x1 = 0.005244	0.9719 ± 0.02
298.15 K, 101 kPa, x1 = 0.006244	0.9873 ± 0.021
298.15 K, 101 kPa, x1 = 0.007041	1 ± 0.021
298.15 K, 101 kPa, x1 = 0.007167	1.002 ± 0.021
298.15 K, 101 kPa, x1 = 0.007446	1.006 ± 0.021
298.15 K, 101 kPa, x1 = 0.008695	1.027 ± 0.021
298.15 K, 101 kPa, x1 = 0.009449	1.039 ± 0.022
298.15 K, 101 kPa, x1 = 0.009885	1.046 ± 0.022
298.15 K, 101 kPa, x1 = 0.01022	1.052 ± 0.022
298.15 K, 101 kPa, x1 = 0.01042	1.055 ± 0.022
298.15 K, 101 kPa, x1 = 0.01059	1.058 ± 0.022
298.15 K, 101 kPa, x1 = 0.01077	1.061 ± 0.022
298.15 K, 101 kPa, x1 = 0.01094	1.064 ± 0.022
298.15 K, 101 kPa, x1 = 0.01192	1.081 ± 0.023
298.15 K, 101 kPa, x1 = 0.01272	1.095 ± 0.023
298.15 K, 101 kPa, x1 = 0.01378	1.114 ± 0.023
298.15 K, 101 kPa, x1 = 0.01401	1.118 ± 0.023
298.15 K, 101 kPa, x1 = 0.01513	1.139 ± 0.024
298.15 K, 101 kPa, x1 = 0.01538	1.143 ± 0.024
298.15 K, 101 kPa, x1 = 0.01928	1.219 ± 0.025
298.15 K, 101 kPa, x1 = 0.02043	1.243 ± 0.026
298.15 K, 101 kPa, x1 = 0.02048	1.244 ± 0.026
298.15 K, 101 kPa, x1 = 0.02097	1.254 ± 0.026
298.15 K, 101 kPa, x1 = 0.02327	1.304 ± 0.027
298.15 K, 101 kPa, x1 = 0.02529	1.35 ± 0.028
298.15 K, 101 kPa, x1 = 0.02589	1.364 ± 0.028
298.15 K, 101 kPa, x1 = 0.0267	1.383 ± 0.029
298.15 K, 101 kPa, x1 = 0.027	1.391 ± 0.029
298.15 K, 101 kPa, x1 = 0.02942	1.451 ± 0.03
298.15 K, 101 kPa, x1 = 0.02988	1.464 ± 0.03
298.15 K, 101 kPa, x1 = 0.03066	1.484 ± 0.031
298.15 K, 101 kPa, x1 = 0.03069	1.485 ± 0.031
298.15 K, 101 kPa, x1 = 0.0311	1.496 ± 0.031
298.15 K, 101 kPa, x1 = 0.03274	1.541 ± 0.032
298.15 K, 101 kPa, x1 = 0.03315	1.553 ± 0.032
298.15 K, 101 kPa, x1 = 0.03378	1.572 ± 0.033
298.15 K, 101 kPa, x1 = 0.03442	1.59 ± 0.033
298.15 K, 101 kPa, x1 = 0.03633	1.648 ± 0.034
298.15 K, 101 kPa, x1 = 0.03656	1.654 ± 0.035
298.15 K, 101 kPa, x1 = 0.03673	1.66 ± 0.035
298.15 K, 101 kPa, x1 = 0.03831	1.711 ± 0.036
298.15 K, 101 kPa, x1 = 0.03856	1.719 ± 0.036
298.15 K, 101 kPa, x1 = 0.04162	1.824 ± 0.038
298.15 K, 101 kPa, x1 = 0.04322	1.883 ± 0.039
298.15 K, 101 kPa, x1 = 0.04455	1.933 ± 0.04
298.15 K, 101 kPa, x1 = 0.04537	1.967 ± 0.041
298.15 K, 101 kPa, x1 = 0.04781	2.068 ± 0.043
298.15 K, 101 kPa, x1 = 0.04866	2.105 ± 0.044
298.15 K, 101 kPa, x1 = 0.0498	2.157 ± 0.045
298.15 K, 101 kPa, x1 = 0.0506	2.194 ± 0.046
298.15 K, 101 kPa, x1 = 0.0536	2.342 ± 0.049
298.15 K, 101 kPa, x1 = 0.05494	2.412 ± 0.051
298.15 K, 101 kPa, x1 = 0.05842	2.611 ± 0.055
298.15 K, 101 kPa, x1 = 0.06081	2.761 ± 0.058
298.15 K, 101 kPa, x1 = 0.06128	2.791 ± 0.059
298.15 K, 101 kPa, x1 = 0.065	3.054 ± 0.064
298.15 K, 101 kPa, x1 = 0.06579	3.114 ± 0.066
298.15 K, 101 kPa, x1 = 0.06654	3.173 ± 0.067
298.15 K, 101 kPa, x1 = 0.06668	3.182 ± 0.067
298.15 K, 101 kPa, x1 = 0.07055	3.515 ± 0.074
298.15 K, 101 kPa, x1 = 0.07902	4.414 ± 0.093
298.15 K, 101 kPa, x1 = 0.08019	4.563 ± 0.096
298.15 K, 101 kPa, x1 = 0.08048	4.6 ± 0.097
298.15 K, 101 kPa, x1 = 0.08806	5.733 ± 0.12
298.15 K, 101 kPa, x1 = 0.08818	5.754 ± 0.12
298.15 K, 101 kPa, x1 = 0.09192	6.437 ± 0.14
298.15 K, 101 kPa, x1 = 0.09327	6.707 ± 0.14
298.15 K, 101 kPa, x1 = 0.09562	7.209 ± 0.15
298.15 K, 101 kPa, x1 = 0.09975	8.198 ± 0.17
298.15 K, 101 kPa, x1 = 0.1012	8.586 ± 0.18
298.15 K, 101 kPa, x1 = 0.1071	10.34 ± 0.22
298.15 K, 101 kPa, x1 = 0.1099	11.29 ± 0.24
298.15 K, 101 kPa, x1 = 0.1131	12.5 ± 0.27
298.15 K, 101 kPa, x1 = 0.1167	14.03 ± 0.3
298.15 K, 101 kPa, x1 = 0.1168	14.08 ± 0.3
298.15 K, 101 kPa, x1 = 0.1185	14.84 ± 0.32
298.15 K, 101 kPa, x1 = 0.1243	17.82 ± 0.38
298.15 K, 101.3 kPa, x1 = 0.03478	1.609 ± 0.034
298.15 K, 101.3 kPa, x1 = 0.05127	2.238 ± 0.047
